The test system of one data set is RSV strain A2. In words: RSV HEp-2 EC50, infectious cytopathic cell protection assay. Format: cell-based. As to conditions: for EC50: human respiratory syncytial virus, 96 h, RSV A2 in HEp-2 cells, 4 days, Cell TiterGlo. On the procedure: Antiviral activity against RSV is determined using an infectious cytopathic cell protection assay in HEp-2 cells. In this assay, compounds inhibiting viral infection and/or replication produce a cytoprotective effect against the virus-induced cell killing that can be quantified using a cell viability reagent. The techniques used here are novel adaptations of methods described in published literature (Chapman et al., Antimicrob Agents Chemother. 2007, 51(9):3346-53.).
HEp-2 cells are obtained from ATCC (Manassas, VI) and maintained in MEM media supplemented with 10% fetal bovine serum and penicillin/streptomycin. Cells are passaged twice a week and kept at subconfluent stage. Commercial stock of RSV strain A2 (Advanced Biotechnologies, Columbia, MD) is titered before compound testing to determine the appropriate dilution of the virus stock that generates desirable cytopathic effect in HEp-2 cells.
For antiviral tests, HEp-2 cells are grown in large cell culture flasks to near confluency but not fully so. The compounds to be tested are prediluted in DMSO in 384-well compound dilution plates, either in an 8 or 40 sample per plate standardized dose response format. 3-fold serial dilution increments of each test compound are prepared in the plates and test samples are transferred via acoustic transfer apparatus (Echo, Labcyte) at 100 nL per well into cell culture assay 384-well plates. Each compound dilution is transferred in single or quadruplicate samples into dry assay plates, which are stored until assay is ready to go. The positive and negative controls are laid out in opposite on ends of the plate in vertical blocks (1 column).
Subsequently, an infectious mixture is prepared using an appropriate dilution of virus stock previously determined by titration with cells at a density of 50,000/mL and 20 μL/well is added to test plates w/compounds via automation (uFlow, Biotek). Each plate includes negative and positive controls (16 replicates each) to create 0% and 100% virus inhibition standards, respectively. Following the infection with RSV, testing plates are incubated for 4 days in a 37° C. cell culture incubator. After the incubation, a cell viability reagent, Cell TiterGlo (Promega, Madison, WI) is added to the assay plates, which are incubated briefly, and a luminescent readout is measured (Envision, Perkin Elmer) in all the assay plates. The RSV-induced cytopathic effect, percentage inhibition, is determined from the levels of remaining cell viability. […] Various potent anti-RSV tool compounds are used as positive controls for antiviral activity.
For orientation: Damage to the host cells serves as the signal in cytopathic effect assays.

Data set [1] can be described thus: Stability assay in cynomolgus monkey hepatic S9 fractions. Type of data set: in vitro ADME. The conditions noted are these: 37° C., NADPH and UDPGA, read-out: Cyno HepS9 t1/2. On the procedure:
For S9 stability, the compounds were incubated at 2 μM in cynomolgus monkey or human hepatic S9 fractions for up to 90 min at 37° C. in the presence of NADPH and UDPGA (Phase I and Phase II cofactor, Sigma-Aldrich). At desired time points following compound addition, samples were quenched with 9 volumes of an aqueous solution containing internal standard, 50% acetonitrile and 25% methanol. Sample plates were centrifuged at 3000 g for 30 min, and 10 μL of the resulting solution was analyzed by LC-MS/MS. Data (analyte to internal standard peak area ratio) were plotted on a semi log scale and fitted using an exponential fit. The half-life (T1/2) was determined assuming first order kinetics.

A further data set in a line: SAEC cytotoxicity assay. Type of data set: cell-based. As to conditions: human, small airway epithelial cells (SAEC). On the procedure:
Human Small Airway Epithelial cells (SAEC) were purchased from Lonza (Walkersville, MD, Cat #CC-2547) and cultured in supplemented Small Airway Epithelial Cell Growth Medium (SAGM) (lonza, Walkersville, MD, Cat #CC-3118). The cells were passaged 1-2 times per week to maintain <80% confluency per manufacturer's protocol. The SAEC cells were discarded after 5 passages in culture.
Following attachment, 3-fold serially diluted compound was added using a Hewlett-Packard D300 Digital Dispenser (Hewlett Packard, Palo Alto, CA) in triplicate. The final concentration of DMSO was normalized to 1.0%. Following compound addition, NHBE or SAEC cells were incubated at 37° C. for 5 days. The NHBE or SAEC cells were then allowed to equilibrate to 25° C. and cell viability was determined by removing 100 μL of culture medium and adding 100 μL of Cell-Titer Glo viability reagent (Promega, Madison, WI). The mixtures were incubated for 10 minutes at 25° C., and the luminescence signal was quantified on an Envision luminescence plate reader (PerkinElmer, Waltham, MA). Percent viability values were determined by normalization to 1.0% DMSO-only control wells with background luminescent signal subtracted out.

The subject of the next data set is RSV A strain A2. In words: RSV HAE EC50, intracellular RSV RNA by real-time PCR. Format: cell-based. The conditions noted are these: for EC50: human respiratory syncytial virus, 72 h, RSV A2 in HAE cells, air-liquid interface, 3 days, RSV RNA. The procedure: HAE cells are cultured at the air-liquid interface and have an apical side that is exposed to the air and a basal side that is in contact with the medium. Prior to experimentation, HAE were removed from their agar-based shipping packaging and were acclimated to 37° C./5% CO2 overnight in 1 ml of HAE Assay medium (AIR-100-MM, Mattek Corp). HAE were prepared for infection by washing the apical surface twice with 400 μL of PBS (either utilizing direct pipetting methods or by running each transwell through a trough containing PBS) to remove the mucus layer. Apical chambers were drained of PBS and tapped gently onto absorbent material to remove as much PBS as possible. After washing, the cells were transferred to fresh HAE maintenance media containing 4-fold serially diluted compound, delivered to the basal side of the cell monolayer, and apically infected with 100 μL of a 1:600 dilution of RSV A strain A2 1000× stock (ABI, Columbia, MD, Cat #10-124-000) in HAE assay medium for 3 hours at 37° C. in 5% CO2. The virus inoculum was removed and the apical surface of the cells was washed 3 times with PBS using either method previously described. The cells were then cultured in the presence of compound for 3 days at 37° C. Following the incubation, total RNA was extracted from the HAE cells using a MagMAX-96 Viral RNA isolation kit (Applied Biosystems, Foster City, CA, Cat #AM1836) and intracellular RSV RNA was quantified by real-time PCR. Approximately 25 ng of purified RNA was added to a PCR reaction mixture that contained 0.9 μM RSV N Forward and RSV N Reverse primers, 0.2 μM RSV N Probe and 1× Taqman RNA-to-Ct 1-Step Kit (Applied Biosystems, Foster City, CA, Cat #4392938). RNA levels were normalized using a Taqman GAPDH control primer set (Applied Biosystems, Foster City, CA, Cat #402869). Real-Time PCR Primers and Probe Used in the RSV A2 HAE Antiviral Assay: RSV N Forward […] (SEQ ID NO: 2), RSV N Reverse […] (SEQ ID NO: 3), RSV N Probe FAM-[…]-BHQ (SEQ ID NO: 4).
On the technique in general: Quantitative PCR measures a nucleic acid by following its amplification.

In general, EC50 refers to the concentration at which the effect is half-maximal. Turning to `CCOC(=O)[C@H](C)NP(=O)(OC[C@@]1(C#N)O[C@@H](c2ccc3c(N)ncnn23)[C@H](O)[C@@H]1O)Oc1ccccc1` (some centres unmarked) [Compound 1, reference compound], in the data set on RSV strain A2, the EC50 was found to be 0.352 µM.

In general, CC50 refers to the concentration that lowers cell viability or growth by half. Consider `CCC(CC)COC(=O)[C@H](C)NP(=O)(OC[C@@]1(C#N)O[C@@H](c2ccc3c(N)ncnn23)[C@H](O)[C@@H]1O)Oc1ccccc1` (some centres unmarked) [Compound 2, reference compound], for which the EC50 came out at 0.069 µM in the data set on RSV strain A2 and 0.186 µM with RSV A strain A2. Also, in data set [1], the half-life at 2 μM is 3 min. It took 28.3 µM to reach half-maximal cytotoxicity in “SAEC cytotoxicity assay” (CC50 at 5 days).

Take `CCC(CC)COC(=O)[C@H](C)N[P@](=O)(OC[C@@]1(C#N)O[C@@H](c2ccc3c(N)ncnn23)[C@H](O)[C@@H]1O)Oc1ccccc1` [Compound 6, 2-ethylbutyl ((S)-(((2R,3S,4R,5S)-5-(4-aminopyrrolo[2,1-f][1,2,4]triazin-7-yl)-2-cyano-3,4-dihydroxytetrahydrofuran-2-yl)methoxy)(phenoxy)phosphoryl)alaninate]: the “times more potent than compound 7, RSV HEp-2” value in the data set with RSV strain A2 (EC50 ratio vs compound 7) is on record as 4.8 times. Besides, the values for the EC50 with RSV strain A2 and with RSV A strain A2 were 0.026 µM and 0.11 µM, respectively. The half-life at 2 μM in data set [1] was 2 min. The compound further showed a CC50 at 5 days in the data set “SAEC cytotoxicity assay” of 27.2 µM.

In the case of `C[C@H](N[P@](=O)(OC[C@@]1(C#N)O[C@@H](c2ccc3c(N)ncnn23)[C@H](O)[C@@H]1O)Oc1ccccc1)C(=O)OC1CCCCC1` [Formula I, cyclohexyl ((S)-(((2R,3S,4R,5S)-5-(4-aminopyrrolo[2,1-f][1,2,4]triazin-7-yl)-2-cyano-3,4-dihydroxytetrahydrofuran-2-yl)methoxy)(phenoxy)phosphoryl)-L-alaninate], in the data set with RSV strain A2 (EC50 ratio vs Formula Ib), the “times more potent than the compound of Formula Ib, RSV HEp-2” value is listed as 31.1 times. In addition, the “more potent relative to compound 1, RSV Hep-2” value in the data set on RSV strain A2 (EC50 ratio vs compound 1) is recorded as “about 4.0”. Further, the “times more potent relative to compound 3, RSV Hep-2” value in the data set with RSV strain A2 (EC50 ratio vs compound 3) is recorded as “about 5 times”. Also, the “times more potent relative to compound 4, RSV Hep-2” value in the data set on RSV strain A2 (EC50 ratio vs compound 4) is recorded as “about 3.9 times”. Further, the “times more potent relative to compound 5, RSV Hep-2” value in the data set with RSV strain A2 (EC50 ratio vs compound 5) is “about 19.8 times”. The EC50 with RSV strain A2 came out at 0.088 µM; with RSV A strain A2 it was 0.023 µM. Further, in data set [1], the half-life at 2 μM was found to be 26 min. In the data set “SAEC cytotoxicity assay”, this compound yielded a CC50 at 5 days of 123 µM. Besides, the “times more potent relative to compound 2, RSV HAE” value in the data set on RSV A strain A2 (EC50 ratio vs compound 2) is recorded as “about 8.1 times”.

The values are drawn from patent US20250034186A1, “ANTIVIRAL COMPOUNDS” (priority 2020, published 2025).
